How the values were obtained:
[1] = Optical properties in methanol; format: physicochemical
Description: The optical properties (in methanol) of compounds 2 to 4 synthesized were determined (Table 1). The compounds 2 to 4 each have maximum absorption at a wavelength at or near 500 nm and emit fluorescence at 509 nm. It was observed that introduction of a perfluoroalkyl group caused some decreases in light absorption coefficients, but little change in their fluorescence quantum yield.

[2] = Photostability under light irradiation (500 nm, methanol); format: physicochemical; details: methanol solution, light of 500 nm, 37° C., FIG. 2
Description: Next, a methanol solution containing each of compounds 2 to 4 was irradiated with light of 500 nm, and incubated at 37° C. Then, a change in the time course of the absorbance at the maximum light absorption wavelength was measured to compare their photostability (FIG. 2). […] By contrast, compounds 3 and 4, having a perfluoroalkyl group, took 2 hours or longer until complete photofading. […] Reaction with singlet oxygen seems to be primarily responsible for the photofading under visible light irradiation. So, the photostability of the present compounds was considered from the viewpoint of the reactivity with singlet oxygen. First, the HOMO/LUMO levels of compounds 2 to 4 were calculated in accordance with a DFT algorithm (FIG. 3). […] As the HOMO level increases, the compounds are more susceptible to oxygenation by singlet oxygen. Thus, this calculation results agree with the results of the photostability test. […] This reflects the fact that the maximum absorption wavelength is unchanged.

[3] = Absorption spectrum measurement (Test Example 3); format: physicochemical; details: for shift of maximum absorption wavelength to the long-wavelength side: 8 vs compound 9, 11 vs F on boron, 12 with R^6 iodine; for Absorbance λmax: Table 2
Description: Each absorption spectrum was measured (Table 2). The maximum absorption wavelength of compound 8, in which the dimethylamino phenyl group of compound 9 was changed to a julolidine group, was shifted to the long-wavelength side by 30 nm than that of compound 9. […] The maximum absorption wavelength of compound 12, in which R^6 was iodine, was shifted to the long-wavelength side by 20 nm. This allowed the compound to be efficiently excited by light with a longer wavelength of over 650 nm. In the cases of the carboxyl group- or sulfonic acid group-substituted tetrahydroquinoline derivatives (compounds 13 to 16) so as to introduce a water-soluble substituent, the absorption wavelength was shifted to the short-wavelength side by about 10 nm than that of the julolidine-substituted derivative. It can be deduced from the above results that as the lone electron pair of the nitrogen atom is arranged more stably on the same plane as that of the benzene ring due to the condensed ring structure of the julolidine or tetrahydroquinoline, the absorption wavelength tends to be shifted more to the long-wavelength side.

[4] = biological target: T1, Aβ1-42 (Homo sapiens, UniProt P05067); test: In vitro Aβ1-42 oxygenation in phosphate buffer under 595 nm light, MALDI-TOF MS; format: biochemical; details: for Aβ1-42 oxygenation activity / rate of oxygenation of Aβ1-42: phosphate buffer pH 7.4, 37° C., light at 595 nm, FIG. 5
T1 sequence (P05067 672-713 limits assumed): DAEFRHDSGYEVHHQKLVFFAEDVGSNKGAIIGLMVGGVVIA
Description: (1) To check whether or not the compounds synthesized actually had Aβ oxygenation activity, in vitro oxygenation experiments were carried out using Aβ1-42 as a substrate. Compound 12 (20 μM) was added to a phosphate buffer solution (pH 7.4) containing Aβ1-42 (20 μM), and the mixture was incubated at 37° C. under LED light irradiation (at a wavelength of 595 nm). Then, a mass spectrometer (MALDI-TOF MS) was used to follow the reaction. Before the light irradiation, native Aβ1-42 and Na^+ adducts were primarily observed. […] (2) The Aβ1-42 oxygenation activities of compounds 8, 11, and 12 were compared (FIG. 5). First, 0.1% TFA aqueous solution containing o-acyliso-Aβ1-42 was diluted with a phosphate buffer solution (PB) (10 mM, pH 7.4) to prepare a native Aβ1-42 solution. To the resulting solution was added a DMSO catalyst stock solution (1.0 M). While incubated at 37° C., the mixture was irradiated with light at 595 nm. […] The heavy metal effect seems to enhance the efficiency of generating singlet oxygen.

[5] = biological target: T1, Aβ1-42; test: Aβ peptide selectivity test: oxygenation of Aβ1-42; format: biochemical; details: 20 μM, pH 7.4, pre-incubated 3 hours, 37° C., 30 min, LED 595 nm, FIG. 9
Description: (§1) Compound 14 was used to investigate whether or not a compound of the present invention was able to selectively oxygenate Aβ. First, compound 14 (20 μM) was added to phosphate buffer solutions (pH 7.4) each containing Aβ1-42 (20 μM), angiotensin IV (20 μM) or a methionine enkephalin (20 μM), which solutions had been pre-incubated for 3 hours. The mixtures were incubated at 37° C. for 30 min under LED light irradiation (at a wavelength of 595 nm). Then, a mass spectrometer (MALDI-TOF MS) was used to follow the reaction. Three model peptides having a residue capable of being oxygenated were selected, including angiotensin IV (AT-4), met-enkephalin (ME), and somatostatin (Sat). These three peptides were subjected to the same oxygenation conditions as for Aβ1-42 (FIG. 9).

[6] = tested on: angiotensin IV (AT-4), met-enkephalin (ME), and somatostatin (Sat); test: Aβ peptide selectivity test: oxygenation of non-amyloid model peptides; format: biochemical; details: same oxygenation conditions as for Aβ1-42, FIG. 9
Description: as §1

Absorbance λmax [1] | Emission λmax [1] | Φfl (fluorescence quantum yield) [1] | ϵ (light absorption coefficient) [1] | shift of maximum absorption wavelength to the long-wavelength side [3] | Absorbance λmax [3] | SMILES | Aβ1-42 oxygenation activity [4] | further results
502 nm | 509 nm | 0.80 | 81400 M⁻¹ cm⁻¹ |  |  | CC1=CC(C)=[N+]2C1=Cc1c(C)cc(C)n1[B-]2(F)F [Compound 2, reference compound] |  | time to substantial photofading [2]: about 30 min
502 nm | 509 nm | 0.80 | 74000 M⁻¹ cm⁻¹ |  |  | CC1=CC(C)=[N+]2C1=Cc1c(C)cc(C)n1[B-]2(F)C(F)(F)F (stereo not drawn) [Compound 3] |  | 
503 nm | 509 nm | 0.79 | 72600 M⁻¹ cm⁻¹ |  |  | CC1=CC(C)=[N+]2C1=Cc1c(C)cc(C)n1[B-]2(F)C(F)(F)C(F)(F)F (stereo not drawn) [Compound 4] |  | 
 |  |  |  | 30 nm | 639 nm | CC1=CC(C)=[N+]2C1=Cc1c(C)cc(/C=C/c3cc4c5c(c3)CCCN5CCC4)n1[B-]2(F)F [Compound 8] | helped oxygenate Aβ1-42 under the light irradiation | 
 |  |  |  | almost no observable change | 640 nm | CC1=CC(C)=[N+]2C1=Cc1c(C)cc(/C=C/c3cc4c5c(c3)CCCN5CCC4)n1[B-]2(F)C(F)(F)F (stereo not drawn) [Compound 11] | helped oxygenate Aβ1-42 under the light irradiation | rate of oxygenation of Aβ1-42 [4]: faster oxygenation rate than the compounds 8
 |  |  |  | 20 nm | 660 nm | CC1=C(I)C(C)=[N+]2C1=Cc1c(C)cc(/C=C/c3cc4c5c(c3)CCCN5CCC4)n1[B-]2(F)C(F)(F)F (stereo not drawn) [Compound 12] | helped oxygenate Aβ1-42 under the light irradiation | Aβ1-42 oxygenation (oxygen adducts by MALDI-TOF MS) ([4]; compound 20 μM, Aβ1-42 20 μM, pH 7.4, 37° C., LED 595 nm, FIG. 4): there appeared ion peaks indicating the presence of oxygen adducts in a time-dependent manner; rate of oxygenation of Aβ1-42 [4]: significantly faster
 |  |  |  |  |  | Cc1cc2nc3c(=O)[nH]c(=O)nc-3n(C[C@H](O)[C@H](O)[C@H](O)CO)c2cc1C [riboflavin] |  | oxygenation activity toward Aβ1-42 [5]: a certain oxygenation activity on all the peptides; oxygenation of the other (non-amyloid) peptides [6]: a certain oxygenation activity on all the peptides
